According to patent US10428080B2, “TBK/IKK inhibitor compounds and uses thereof” (Merck Patent GmbH, priority 2015, dated 2019):
Structures can show the parent of a compound that is named as a salt.

Legend:
[1] = biological target: T1, TBK1 (Homo sapiens, UniProt Q9UHD2); test: TBK Biochemical Assay; conditions: read-out: TBK1 IC50
T1 sequence (Q9UHD2 1-729): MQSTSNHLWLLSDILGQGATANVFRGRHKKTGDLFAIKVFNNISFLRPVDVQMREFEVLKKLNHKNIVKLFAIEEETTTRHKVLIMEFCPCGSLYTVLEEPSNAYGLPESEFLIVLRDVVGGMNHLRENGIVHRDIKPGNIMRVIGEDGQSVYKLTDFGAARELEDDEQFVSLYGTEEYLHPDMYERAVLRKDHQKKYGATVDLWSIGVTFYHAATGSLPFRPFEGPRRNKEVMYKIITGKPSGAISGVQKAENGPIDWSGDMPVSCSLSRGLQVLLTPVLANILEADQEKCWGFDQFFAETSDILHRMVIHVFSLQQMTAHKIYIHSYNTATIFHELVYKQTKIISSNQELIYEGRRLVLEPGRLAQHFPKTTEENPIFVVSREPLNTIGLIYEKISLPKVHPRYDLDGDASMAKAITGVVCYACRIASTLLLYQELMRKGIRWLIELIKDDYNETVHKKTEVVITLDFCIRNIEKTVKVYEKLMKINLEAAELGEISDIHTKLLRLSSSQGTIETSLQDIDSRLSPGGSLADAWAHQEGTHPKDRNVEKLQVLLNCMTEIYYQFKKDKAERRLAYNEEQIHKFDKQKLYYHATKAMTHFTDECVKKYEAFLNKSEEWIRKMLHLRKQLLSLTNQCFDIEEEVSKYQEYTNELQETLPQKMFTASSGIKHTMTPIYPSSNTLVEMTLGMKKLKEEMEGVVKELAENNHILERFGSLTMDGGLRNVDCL
How it was run: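 Caliper LabChip mobility-shift readout of substrate and product after 90 min of TBK1 reaction at 25° C and stop-buffer addition. Compounds tested in 1:4 serial dilution over 10 points from 30 uM final at 1% DMSO; staurosporine 10 uM final defines full inhibition.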

[2] = biological target: T2, IKKε (Homo sapiens, UniProt Q14164); test: IKKe Biochemical Assay; conditions: read-out: IKKε IC50
T2 sequence (Q14164 1-716): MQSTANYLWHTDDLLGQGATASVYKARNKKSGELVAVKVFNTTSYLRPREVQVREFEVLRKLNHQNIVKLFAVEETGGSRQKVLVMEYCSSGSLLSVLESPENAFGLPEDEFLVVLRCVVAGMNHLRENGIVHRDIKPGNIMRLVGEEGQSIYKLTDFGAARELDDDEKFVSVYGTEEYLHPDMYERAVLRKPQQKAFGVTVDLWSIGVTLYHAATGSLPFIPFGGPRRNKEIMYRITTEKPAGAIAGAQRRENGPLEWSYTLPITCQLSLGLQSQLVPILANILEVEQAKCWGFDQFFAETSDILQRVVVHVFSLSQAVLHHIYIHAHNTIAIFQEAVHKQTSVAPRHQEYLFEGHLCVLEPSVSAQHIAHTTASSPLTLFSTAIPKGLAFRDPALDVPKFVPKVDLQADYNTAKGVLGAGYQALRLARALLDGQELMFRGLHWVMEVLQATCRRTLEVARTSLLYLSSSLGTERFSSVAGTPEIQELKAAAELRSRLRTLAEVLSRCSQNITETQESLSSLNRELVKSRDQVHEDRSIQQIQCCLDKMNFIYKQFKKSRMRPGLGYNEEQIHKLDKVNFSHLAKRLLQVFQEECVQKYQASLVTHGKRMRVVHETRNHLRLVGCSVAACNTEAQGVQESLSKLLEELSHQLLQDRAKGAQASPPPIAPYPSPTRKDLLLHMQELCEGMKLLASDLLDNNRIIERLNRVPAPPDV
How it was run: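 Activity was measured as mobility-shift separation of phosphorylated from unphosphorylated substrate on a LabChip EZ Reader. Compound was titrated from 30 uM final in 10 points, 1:4 steps, with 1% DMSO, and enzyme plus substrate reacted 90 min at 25° C before stop buffer. Control wells held 10 uM staurosporine.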

SMILES | IC50 [1] | IC50 [2]
CN(C)C(=O)c1ccc(-c2cc3nccc(-c4ccc(C(C)(C)N5CCOCC5)c(C#N)c4)c3o2)cc1 [Compound 223, 4-(7-(3-cyano-4-(2-morpholinopropan-2-yl)phenyl)furo[3,2-b]pyridin-2-yl)-N,N-dimethylbenzamide hydrochloride] | < 100 nM | < 100 nM
COc1cc(C(=O)N(C)C)ccc1-c1cc2nccc(-c3ccc(C(C)(C)N4CCOCC4)c(C#N)c3)c2o1 [Compound 235, 4-(7-(3-cyano-4-(2-morpholinopropan-2-yl)phenyl)furo[3,2-b]pyridin-2-yl)-3-methoxy-N,N-dimethylbenzamide hydrochloride] | 100 to 1000 nM | 100 to 1000 nM
CN(C)C(=O)c1ccc(-c2cc3nccc(-c4ccc(NC5C6COCC65)c(C#N)c4)c3o2)cc1 (stereo not shown) [Compound 217, 4-(7-(4-(3-oxa-bicyclo[3.1.0]hexan-6-ylamino)-3-cyanophenyl)furo[3,2-b]pyridin-2-yl)-N,N-dimethylbenzamide hydrochloride] | 100 to 1000 nM | 100 to 1000 nM
COc1cc(C(=O)N2C3CCC2COC3)ccc1-c1cc2nccc(-c3ccc(NC4CCOCC4)c(C#N)c3)c2o1 [Compound 94, 5-{2-[2-Methoxy-4-(3-oxa-8-aza-bicyclo[3.2.1]octane-8-carbonyl)-phenyl]-furo[3,2-b]pyridin-7-yl}-2-(tetrahydro-pyran-4-ylamino)-benzonitrile] | < 100 nM | < 100 nM
COc1cc(C(=O)N(C)C)ccc1-c1cc2nccc(-c3ccc(OC4CC(C)(C)NC(C)(C)C4)c(C#N)c3)c2o1 [Compound 229, 4-(7-(3-cyano-4-(2,2,6,6-tetramethylpiperidin-4-yloxy)phenyl)furo[3,2-b]pyridin-2-yl)-3-methoxy-N,N-dimethylbenzamide] | 100 to 1000 nM | 100 to 1000 nM
COc1cc(C(=O)NC2(C)CCNC2)ccc1-c1cc2nccc(-c3ccc(OC4CCOCC4)c(C#N)c3)c2o1 (stereo not shown) [Compound 86, 4-{7-[3-Cyano-4-(tetrahydro-pyran-4-yloxy)-phenyl]-furo[3,2-b]pyridin-2-yl}-3-methoxy-N-(3-methyl-pyrrolidin-3-yl)-benzamide hydrochloride] | < 100 nM | < 100 nM
COc1cc(C(=O)N(C)C)ccc1-c1cc2nccc(-c3ccc(O[C@@H]4CCNC4)c(C#N)c3)c2o1 [Compound 115, 4-{7-[3-Cyano-4-((R)-pyrrolidin-3-yloxy)-phenyl]-furo[3,2-b]pyridin-2-yl}-3-methoxy-N,N-dimethyl-benzamide] | < 100 nM | < 100 nM
COc1cc(C(=O)N(C)C)ccc1-c1cc2nccc(-c3ccc(NC4CCOCC4)c(C#N)c3)c2o1 [Compound 226, 4-(7-(3-cyano-4-(tetrahydro-2H-pyran-4-ylamino)phenyl)furo[3,2-b]pyridin-2-yl)-3-methoxy-N,N-dimethylbenzamide] | < 100 nM | < 100 nM
COc1cc(C(=O)N2CC(C)(O)C2)ccc1-c1cc2nccc(-c3ccc(OC4CCOCC4)c(C#N)c3)c2o1 [Compound 48, 5-{2-[4-(3-Hydroxy-3-methyl-azetidine-1-carbonyl)-2-methoxy-phenyl]-furo[3,2-b]pyridin-7-yl}-2-(tetrahydro-pyran-4-yloxy)-benzonitrile] | < 100 nM | < 100 nM
COc1cc(C(=O)N2CCC2)ccc1-c1cc2nccc(-c3ccc(OC4CCOCC4)c(C#N)c3)c2o1 [Compound 44, 5-{2-[4-(Azetidine-1-carbonyl)-2-methoxy-phenyl]-furo[3,2-b]pyridin-7-yl}-2-(tetrahydro-pyran-4-yloxy)-benzonitrile] | < 100 nM | < 100 nM
CN(C)C(=O)c1ccc(-c2cc3nccc(-c4ccc(NC5CC(C)(C)OC(C)(C)C5)c(C#N)c4)c3o2)cc1 [Compound 218, 4-(7-(3-cyano-4-(2,2,6,6-tetramethyl-tetrahydro-2H-pyran-4-ylamino)phenyl)furo[3,2-b]pyridin-2-yl)-N,N-dimethylbenzamide] | 1000 to 5000 nM | 1000 to 5000 nM
CN(C)C(=O)c1ccc(-c2cc3nccc(-c4ccc(NC5CCOCC5)c(C#N)c4)c3o2)cc1 [Compound 194, 4-(7-(3-cyano-4-(tetrahydro-2H-pyran-4-ylamino)phenyl)furo[3,2-b]pyridin-2-yl)-N,N-dimethylbenzamide hydrochloride] | 100 to 1000 nM | 100 to 1000 nM

Now from value to molecule:

IC50 [1] | IC50 [2] | SMILES
< 100 nM | < 100 nM | CCN(CC)C(=O)c1ccc(-c2cc3nccc(-c4ccc(OC5CCOCC5)c(C#N)c4)c3o2)c(OC)c1 [Compound 256, 4-(7-(3-cyano-4-(tetrahydro-2H-pyran-4-yloxy)phenyl)furo[3,2-b]pyridin-2-yl)-N,N-diethyl-3-methoxybenzamide hydrochloride]
< 100 nM | < 100 nM | CN(C)C(=O)c1ccc(-c2cc3nccc(-c4ccc(OC5CCOCC5)c(C#N)c4)c3o2)c(O)c1 [Compound 264, 4-(7-(3-cyano-4-(tetrahydro-2H-pyran-4-yloxy)phenyl)furo[3,2-b]pyridin-2-yl)-3-hydroxy-N,N-dimethylbenzamide]
100 to 1000 nM | 100 to 1000 nM | CN(C)C(=O)c1ccc(-c2cc3nccc(-c4cc(F)c(OC5CCOCC5)c(C#N)c4)c3o2)nc1 [Compound 245, 6-(7-(3-cyano-5-fluoro-4-(tetrahydro-2H-pyran-4-yloxy)phenyl)furo[3,2-b]pyridin-2-yl)-N,N-dimethylnicotinamide hydrochloride]
100 to 1000 nM | 100 to 1000 nM | COc1cc(C(=O)N(C)CCO)ccc1-c1cc2ncc(C)c(-c3ccc(NC4CCOCC4)c(C#N)c3)c2o1 [Compound 268, 4-(7-(3-cyano-4-(tetrahydro-2H-pyran-4-ylamino)phenyl)-6-methylfuro[3,2-b]pyridin-2-yl)-N-(2-hydroxyethyl)-3-methoxy-N-methylbenzamide]
1000 to 5000 nM | 1000 to 5000 nM | COc1cc(C(=O)N(C)CCO)cnc1-c1cc2ncc(Cl)c(-c3ccc(OC4CCOCC4)c(C#N)c3)c2o1 [Compound 342, 6-[6-chloro-7-[3-cyano-4-(oxan-4-yloxy)phenyl]furo[3,2-b]pyridin-2-yl]-N-(2-hydroxyethyl)-5-methoxy-N-methylpyridine-3-carboxamide hydrochloride]
100 to 1000 nM | 100 to 1000 nM | CN(C)C(=O)c1ccc(-c2cc3nccc(-c4ccc(OC5CCOCC5)c(C#N)c4)c3o2)nn1 [Compound 242, 6-(7-(3-cyano-4-(tetrahydro-2H-pyran-4-yloxy)phenyl)furo[3,2-b]pyridin-2-yl)-N,N-dimethylpyridazine-3-carboxamide hydrochloride]
> 5000 nM | > 5000 nM | COc1cc(C(=O)N(C)C)ccc1-c1cc2nccc(-c3cc(C#N)c(NC4CCOCC4)c(C4CC4)c3)c2o1 [Compound 308, 4-(7-(3-cyano-5-cyclopropyl-4-(tetrahydro-2H-pyran-4-ylamino)phenyl)furo[3,2-b]pyridin-2-yl)-3-methoxy-N,N-dimethylbenzamide]
100 to 1000 nM | 100 to 1000 nM | COc1cc(C(=O)N(C)C)ccc1-c1cc2nccc(-c3cc(C#N)c(OC4CCOCC4)c(C4CC4)c3)c2o1 [Compound 307, 4-(7-(3-cyano-5-cyclopropyl-4-(tetrahydro-2H-pyran-4-yloxy)phenyl)furo[3,2-b]pyridin-2-yl)-3-methoxy-N,N-dimethylbenzamide]
